Test results published in patent US6979447B2, “Immunomodulation and effect on cell processes relating to serotonin family receptors” (Philadelphia Health and Education Corporation, priority 2001, dated 2005).
Entries after “also recorded” stand apart in the source; their conditions may differ.

Legend:
[1] = system: human lymphocytes; assay: Human mitogenic (ConA) stimulation, 3H-thymidine incorporation; format: cell-based; settings: for effect on activation / proliferative response: ConA 5 μg/ml, harvested 72 hours, FIGS. 7A, 8A, 9A; for effect on stimulation of ConA-stimulated human PBLs: reagents at 400 μM, time course, FIG. 4
Method: Blood from healthy volunteers was drawn using venipuncture, using Vacutainer collection sets and heparinized collection vials. The blood was diluted 1:1 using HBSS to a total volume of 30 ml in 50 ml conical tubes (Fisher Scientific, Co., Pittsburgh, Pa.). […] Cells from the buffy coats were collected and the residual Histopaque was washed away using repeated centrifugations in HBSS. After washes, cells were resuspended at 5 million cells per ml in RPMI, supplemented with 2% FBS. To remove adherent cells, the suspension was plated onto a 6 well flat-bottom plate (Corning Costar), 3 ml/well, and incubated for 2 hours at 37° C., 5% CO2. Non-adherent cells were harvested after this incubation, were counted and resuspended in RPMI supplemented with 10% human serum (Sigma).
All drugs were pre-plated before the cell suspension was added onto each well of a 96-well round-bottom plate. All experimental conditions were assayed in at least triplicate. Cells suspended in RPMI supplemented with 10% human serum were plated at 100,000 cells per well to a final volume of 200 μl. […] Control samples received no ConA stimulation. The plates were incubated at 37° C. and 5% CO2. One microCurie of tritiated thymidine was added to each well after 60 hours, and the plates were harvested 12 hours later.

[2] = system: T cells; assay: Macrophage media-conditioning study, T cell proliferation in conditioned media; format: cell-based, mouse; settings: for conditioning effect of the media: uptake inhibitor present during the conditioning phase
Text: Femur and tibia bones were harvested from the hind limbs of 6-8 week old C57/B6J mice (Jackson Laboratories, Bar Harbor, Me.). The distal ends of the bones were removed, exposing the marrow plugs. Using a 22 gauge needle (Becton-Dickinson, Lincoln Park, N.J.), the marrow cavities were flushed with RPMI medium supplemented 2% FBS. The cell suspension was then passed through a nylon mesh to remove stromal cells. Red blood cells were lysed using ACK (ammonium chloride potassium lysis buffer; 0.15 M NH4Cl, 10 mM KHCO3, 0.1 mM EDTA) buffer as described in Current Protocols in Immunology (Section 3.1.5).
Cells were resuspended at 10^7 cells/ml in RPMI medium, containing 10% FBS, 500 units/ml of murine M-CSF, and 3 ml/well of cell suspension were plated onto a 6 well flat-bottom plate. […] Cells were grown for 4 days. Spleens of 6-8 week old BALB/c/BYJ were harvested, and single cell suspension was made. Red blood cells were removed as described above. Adherent cells were removed by 1.5 hour incubation on a nylon wool column, and suspension cells were collected. The BALB/c cells were then plated over the C57/B6 cells (see supra), at 1.2×10^6 cells/well, in 0.65 ml (bringing brought the final volume of each well to 1.3 ml). The cells were grown for 2.5 days. When appropriate, fluoxetine or BCH were added at the beginning of this incubation. The medium from the mixed cell cultures was harvested, centrifuged at 1200 RPM to remove cells, and filtered using a 0.22 microns syringe filter (Corning). This filtered medium was used to support another round of cell proliferation.

[3] = system: human lymphocytes; assay: Human mixed lymphocyte reaction (allogeneic stimulation); format: cell-based; settings: allogeneic stimulation, harvested 120 hours, FIGS. 7B, 8B, 9B
Text: Blood from two healthy, non-related, donors was taken as described above. Peripheral blood mononuclear cells were isolated as described previously elsewhere. The adherent cells were separated from the suspension cells as described previously for both donors. Suspension cells from both donors (donors A and B) were used as responders. The remaining adherent cells from each of the donors were used as stimulators against a different donor (suspension A against adherent B and adherent A against suspension B). The stimulator cells were irradiated at 35 Gy. Drugs were pre-plated onto 96 well, U-bottom plates in triplicate. 200,000 “stimulator” cells in RPMI supplemented with 10% human serum were then plated in each well. 200,000 “responder” cells in the same medium were then plated over stimulators to a final volume of 200 μl/well. Background controls received either no stimulator cells, or no responder cells. The plates were incubated at 37° C. and 5% CO2. 1 μCi of tritiated thymidine was added to each well after 4.5 days, and the plates were harvested 12 hours later.

[4] = system: allogeneic CTL response to P815 cells; assay: Murine allograft model, CTL killing of P815 target cells by splenocytes; format: in vivo, C57BL/6J mice; settings: for effect on allogeneic killing response: tail vein 300 μg/injection on days 5 and 7, sacrificed day 14, FIGS. 18A, 18B; for effect on allograft (CTL) response: tail vein bolus 200 μg/injection on days 6 and 8, sacrificed day 14, FIG. 13
Method: The in vivo validation screen used was an art-recognized murine allogeneic rejection model as described in Zhan et al., 2000. For this assay, a complete MHC miss-match system was employed wherein 5×10^6 P815 cells ([H-2^d] DBA/2 mastocytoma) were injected into the peritoneal cavity of C57BL/6J (H-2^b) mice on day 0 of the experiment. These mice typically generate a strong cytotoxic T lymphocyte (CTL) reaction in response to P815 cells. Following the initial P815 cell inoculation, the mice were allowed to develop a CTL response (this usually takes about 10-14 days). […] Mice were then sacrificed on day 14 of the experiment as indicated in the figures; and the allogeneic CTL response was assayed as described previously (Tretiakova et al., 2000, Nature Biotechnology 18:984-988). The primary spleen cells from the treated and untreated animals were used in the direct CTL readout. Freshly obtained primary spleen cells were incubated with the [^3H] labeled target cells (P815 cells) at 100:1, 50:1, 25:1, and 12.5:1 ratios for 3.5 hours at 37° C. and harvested using a PHD harvester. The percentage of specific killing was determined using the formula % kill=(S−E)/S, where S is the amount of the DNA retained by the target cells in the absence of the effector cells and E is the amount of retained DNA in the presence of the effector cells (expressed in counts per minute; cpm).
This is an art-recognized model of allograft […] rejection based on that described by […]. (2000). In this model, there is a complete MHC mismatch between the P815 cells (H-2^d) and the C57BL6 mouse (H-2^b), thus ensuring an aggressive immune response. The data disclosed in FIG. 13, depicts results of experiments that included 6 treatment groups, each group consisting of three mice. Each mouse received 5×10^6 P815 cells injected into the peritoneal cavity on day 0 of the study. The first group was an untreated control group, which was used to establish the baseline response of the mice against the allogeneic stimulus. These mice, without any further treatments, were sacrificed, as were the other treatment groups, on day 14 of the study and their splenocytes assayed for target-specific killing of the P815 cells.
The average kill observed for the untreated group was about 45% at an effector to target ratio of 100:1. […] The timing of the drug administration was selected to ensure that the T cells were fully activated prior to the drug treatment. The third group was treated with propanolol, a 5HT-1 antagonist. All of the 5HT receptor antagonist-treated groups were treated as described for the risperidone-treated group. The fourth group was treated chronically with CyclosporinA. The Cyclosporin A was administered ip at a dosage of 100 μg/injection starting two days prior to the onset of the study, i.e., at day-2, and the injections were continued on a daily basis for the duration of the study.
Finally, studies conducted in vivo using the CD8-dependent allograft rejection model, in which P815 cells (a rapidly growing cell line taken from a mastocytoma in a DBA mouse), were expanded and used to create a robust rejection response in a C57BL6 mouse. In this study the mice received 5×10^6 P815 cells injected into their peritoneal cavity on day 0 of the study. The first group was an untreated control group (naïve animals), used to acquire the baseline response of the mice against the allogeneic stimulus. The positive controls were treated with the allogeneic cells without any further treatments. These animals were used to assess the induced allogeneic response against the P815 cells.
All treatment groups were sacrificed on day 14 of the study and their splenocytes assayed for target-specific killing of the P815 cells (the averaged overall kill observed for the positive control group was about 45% at an effector to target ratio of 100:1). The serotonin-specific compounds were administered via tail vein injection (300 μg/injection) on days 5 and 7 of the study. […]

[5] = system: RPMI-8226 cells; assay: Hematoxylin-eosin / bis-benzamide staining of RPMI-8226 cytospins; format: cell-based, human; settings: 2 μM, 9 hour treatment, FIG. 28
Method: 2.0×10^5 RPMI-8226 cells were cultured, in 6-well culture plates, in the presence of the indicated drug concentrations, in a total of 5 mL RPMI-1640 supplemented with 10% FBS. Each well was harvested in its entirety and divided into two identical samples for cytospins.
1.0×10^5 RPMI-8226 cells from each treatment group were loaded into Cyto-funnels and centrifuged at 500 rpm for 4 minutes with medium acceleration. Slides were then fixed through graded methanol in PBS (100%, 5 minutes; 80%, 5 minutes; 50%, 5 minutes), washed for 5 minutes in PBS and stored in PBS at 4° C. until stained.
Cytospun slides were stained with Hematoxylin and Eosin, followed by the nuclear stain, bis-benzamide, rinsed and mounted according to standard staining protocols. Slides were visualized under both brightfield and fluorescent light to generate matched images of the same slide field (see, e.g., FIGS. 28 and 29).

Question: Which “effect on mitogenic response” value ([1]; ConA 1 μg/ml, human PBLs, FIG. 3) does the source give for `N[C@@H](Cc1ccc(Cl)cc1)C(=O)O` (racemic) [PCPA, para-chlorophenylalanine] here?
Answer: Its value is “inhibits the mitogenic response in a dose-dependent manner”.

Question: `NC1(C(=O)O)CC2CCC1C2` (stereo not shown) [2-amino 2-norbornane carboxylic acid] was tested. Which “conditioning effect of the media” value [2] did it give?
Answer: Its value is “can be prevented”.

Question: Which results are given for `N[C@@H](Cc1c[nH]c2ccc(O)cc12)C(=O)O` [5-hydroxy-tryptophan]?
Answer: effect on proliferation response ([1]; 25 μM, in the absence of PCPA, FIG. 3): significantly enhanced the proliferation response; reversal of PCPA inhibition of the mitogenic response ([1]; added to PCPA-inhibited cells, FIG. 3): this inhibition can be reversed

Question: Which “effect on activation / proliferative response” value [3] does the source give for `OC(CN1CCN(c2cccc(Cl)c2)CC1)C(c1ccccc1)c1ccccc1` (stereo not shown) [BRL 15572] here?
Answer: Its value is “no effect upon the proliferative response”.

Question: What about the “effect on activation / proliferative response” value [1] of the same compound?
Answer: Its value is “no effect upon the proliferative response”.

Question: For `CC(O)C(C)OC(=O)[C@@H]1C[C@@H]2c3cccc4c3c(cn4C(C)C)C[C@H]2N(C)C1` (stereo partly shown) [LY 53857], which “effect on activation / proliferative response” value [3] is on record?
Answer: The value was “inhibit the activation response at pharmacologically relevant concentrations”.

Question: What about the “effect on activation / proliferative response” value [1] of the same compound?
Answer: The value was “inhibit the activation response at pharmacologically relevant concentrations”.

Question: With `Cn1ccc2cc3c(cc21)CCN3C(=O)Nc1cccnc1` [SB 206553] as the compound, how does the “effect on activation / proliferative response” value [3] read?
Answer: Its value is “inhibit the activation response at pharmacologically relevant concentrations”.

Question: What about the “effect on allogeneic killing response” value [4] of the same compound?
Answer: Its value is “striking”.

Question: And the “effect on allograft (CTL) response” value [4]?
Answer: The value was “inhibited the allograft response to varying degrees”.

Question: And the “individual mouse responses within treated group” value ([4]; three treated mice, FIG. 14)?
Answer: Its value is “Two of the treated mice had the allogeneic response completely suppressed; also recorded: Two of the three treated mice inhibited the allograft response to a degree equivalent to that observed in the Cyclosporin A-treated animals”.

Question: And the “effect on activation / proliferative response” value [1]?
Answer: The value was “inhibit the activation response at pharmacologically relevant concentrations”.

Question: What about the “in vitro effect on activation response / helper T cell proliferation (summary statement)” value [1] of the same compound?
Answer: Its value is “immediate cessation of proliferation”.

Question: For `COc1ccccc1N1CCN(CCN(C(=O)C2CCCCC2)c2ccccn2)CC1` [WAY 100635], which “in vitro effect on activation response / helper T cell proliferation (summary statement)” value [1] is on record?
Answer: The value was “significantly inhibits the activation response”.

Question: How did the “chromatin / nuclear morphology” value [5] turn out when `CC[C@@]1(O)C(=O)OCc2c1cc1n(c2=O)Cc2cc3ccccc3nc2-1` [camptothecin] was run?
Answer: The value was “Extensive chromatin condensation and nuclear fragmentation”.

Question: `CNCCC(Oc1ccc(C(F)(F)F)cc1)c1ccccc1` (stereo not shown) [fluoxetine] was tested. Which “conditioning effect of the media” value [2] did it give?
Answer: Its value is “can be prevented”.

Question: `CC[C@@H](CO)NC(=O)[C@@H]1C=C2c3cccc4c3c(cn4C)C[C@H]2N(C)C1` [methysergide] was tested. Which “effect on allogeneic killing response” value [4] did it give?
Answer: Its value is “complete inhibition of the induced killing response; also recorded: abrogated the allogeneic killing response; also recorded: inhibition profile was striking”.

Question: And the “effect on allograft (CTL) response” value [4]?
Answer: Its value is “inhibited the allograft response to varying degrees”.

Question: How did the “drug concentration giving significant inhibition” value ([1]; ConA 0.1 and 1 μg/ml, FIGS. 5A and 5B) turn out when `NNCCc1ccccc1` [phenelzine] was run?
Answer: Its value is 10 to 100 µM.

Question: And the “drug concentration giving full inhibition” value ([1]; higher ConA stimulation (10 μg/ml))?
Answer: The value was 100 to 400 µM.

Question: And the “effect on proliferative response” value ([1]; highest ConA dose, 10 μg/ml, harvest 72 hours, FIG. 5C)?
Answer: Its value is “no inhibition was observed”.

Question: And the “effect on stimulation of ConA-stimulated human PBLs” value [1]?
Answer: Its value is “completely shut down the stimulation”.

Question: For `NCCc1c[nH]c2ccc(O)cc12` [serotonin, 5-hydroxytryptamine], which “restoration of T cell proliferation in conditioned media” value ([2]; added to conditioned media, FIG. 1) is on record?
Answer: The value was “only marginally restored the assay”.

Question: What about the “relief of phenelzine-induced inhibition” value ([1]; ConA 1 μg/ml, added to phenelzine-inhibited cells, 100 μM each, FIG. 6) of the same compound?
Answer: The value was “caused the assay to rebound to baseline levels”.

Question: And the “effect on proliferative response” value ([1]; ConA 1 μg/ml, reagent 100 μM, FIG. 6)?
Answer: The value was “did not”.

Question: What about the “effect on the assay across ConA concentrations” value ([1]; ConA 0.1, 1 and 10 μg/ml, harvest 72 hours, FIG. 5) of the same compound?
Answer: The value was “no effect on the assay until the highest dose of ConA”.

Question: And the “effect on stimulation of ConA-stimulated human PBLs” value [1]?
Answer: The value was “enhanced the maximal stimulation of the cells”.
